Test results reported in PubChem BioAssay (NCI).
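1) Cells in 96-well plates. 2) Compound, 48 h, 5 concentrations. 3) Linear interpolation between surrounding doses. 4) Unreached endpoint = highest concentration. At the GI50, growth is halved. TGI is the concentration that stops growth completely.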

Assays:
Assay in all cases: DTP human tumour cell line panel, 48 h
MALME-3M melanoma = tested on: MALME-3M melanoma
OVCAR-8 ovarian = tested on: OVCAR-8 ovarian
UACC-62 melanoma = tested on: UACC-62 melanoma
HS 578T breast = tested on: HS 578T breast
A549 NSCLC = tested on: A549 NSCLC
HCT-15 colon = tested on: HCT-15 colon
SF-539 CNS = tested on: SF-539 CNS
HOP-62 NSCLC = tested on: HOP-62 NSCLC
EKVX NSCLC = tested on: EKVX NSCLC
OVCAR-5 ovarian = tested on: OVCAR-5 ovarian

| SMILES | TGI (MALME-3M melanoma) | TGI (OVCAR-8 ovarian) | TGI (UACC-62 melanoma) | TGI (HS 578T breast) | TGI (A549 NSCLC) | TGI (HCT-15 colon) | TGI (SF-539 CNS) | TGI (HOP-62 NSCLC) | TGI (EKVX NSCLC) | GI50 (MALME-3M melanoma) | GI50 (OVCAR-8 ovarian) | GI50 (OVCAR-5 ovarian) | TGI (OVCAR-5 ovarian) | GI50 (UACC-62 melanoma) | GI50 (HS 578T breast) | GI50 (A549 NSCLC) | GI50 (HCT-15 colon) | GI50 (HOP-62 NSCLC) | GI50 (EKVX NSCLC) | GI50 (SF-539 CNS) |
| --- | --- | --- | --- | --- | --- | --- | --- | --- | --- | --- | --- | --- | --- | --- | --- | --- | --- | --- | --- | --- |
| OCCN(CO)CO | > 100 µM | > 100 µM | > 100 µM | > 100 µM | > 100 µM | > 100 µM | > 100 µM | > 100 µM | > 100 µM | – | – | – | – | – | – | – | – | – | – | – |
| CCc1ccc2c(c1)N(CCO)C1=C(C(=O)OC1)C2c1cc(OC)c(OC)c(OC)c1 (stereo not given) | > 50 µM | 1.22 µM | > 50 µM | > 50 µM | > 50 µM | > 50 µM | – | > 50 µM | > 50 µM | 0.218 µM | 0.184 µM | 0.422 µM | > 50 µM | 0.182 µM | 0.218 µM | 0.236 µM | 0.425 µM | 0.207 µM | 1.17 µM | – |
| OCC(O)C(O)C(O)c1nn(-c2ccc(F)cc2)c2nc3cc(Cl)c(Cl)cc3nc12 (stereo not given) | 23.5 µM | 23 µM | 35.9 µM | – | 32 µM | > 100 µM | 39.2 µM | 28.8 µM | 49.2 µM | – | – | – | > 100 µM | – | – | – | – | – | – | – |
| COc1ccc(-c2csc(Nc3cccc(-c4csc(C)n4)c3)n2)cc1 | – | > 31.2 µM | 7.61 µM | > 37.9 µM | 49.8 µM | > 47.7 µM | 8.27 µM | > 33.8 µM | > 50 µM | – | 2.27 µM | 3.45 µM | 48.6 µM | 0.249 µM | 4.68 µM | 0.902 µM | 0.226 µM | 2.81 µM | 3.63 µM | 1.57 µM |
| COc1ccc(C2NC(=S)NC3=C2CCOc2c3ccc3ccccc23)cc1 (stereo not given) | > 100 µM | > 100 µM | > 100 µM | > 100 µM | > 100 µM | > 100 µM | – | > 100 µM | > 100 µM | 49.8 µM | 32.6 µM | > 100 µM | > 100 µM | 21.2 µM | 47.4 µM | 39 µM | 21.4 µM | > 100 µM | 17.4 µM | – |
| Cc1cc(NN=C(c2ccc(O)cc2)c2ccc(O)cc2)c([N+](=O)[O-])cc1[N+](=O)[O-] | 23.2 µM | > 100 µM | 19.3 µM | 39.8 µM | > 100 µM | 53.6 µM | – | 18.2 µM | 26.6 µM | 9.31 µM | 4.08 µM | 11.1 µM | 36.6 µM | 4.77 µM | 5.04 µM | 2.47 µM | 4.19 µM | 4.11 µM | 4.54 µM | – |
| O=C1CCC(=O)N1Sc1ccccc1 | – | > 100 µM | > 100 µM | – | > 100 µM | > 100 µM | > 100 µM | > 100 µM | > 100 µM | – | – | – | – | – | – | – | – | – | – | – |
| COc1cc2c(c(OC)c1OC)C(=O)NCCC2 | > 100 µM | > 100 µM | > 100 µM | – | > 100 µM | > 100 µM | > 100 µM | > 100 µM | > 100 µM | – | – | – | > 100 µM | – | – | – | – | – | – | – |
| O=C(O)CCCCC1CCSS1 (stereo not given) | > 100 µM | > 100 µM | – | > 100 µM | > 100 µM | > 100 µM | > 100 µM | > 100 µM | > 100 µM | – | – | – | > 100 µM | – | – | – | – | – | – | – |
| C1=CC2CCC1CN2CCC1CNc2ccccc21 (stereo not given) | > 100 µM | > 100 µM | > 100 µM | – | > 100 µM | – | > 100 µM | > 100 µM | > 100 µM | – | – | – | > 100 µM | – | – | – | – | – | – | – |
| O=C1OC(=O)C([Se]c2ccccc2)=C1[Se]c1ccccc1 | > 100 µM | > 100 µM | > 100 µM | – | > 100 µM | > 100 µM | > 100 µM | > 100 µM | > 100 µM | – | – | – | > 100 µM | – | – | – | – | – | – | – |
| COc1ccc(/C=C/C(=O)c2cc3c(N)c(C(=O)Nc4ccc(OC)cc4)sc3nc2C)cc1 | – | > 50 µM | > 50 µM | > 11.8 µM | > 50 µM | > 50 µM | 1.54 µM | > 50 µM | > 50 µM | – | 0.334 µM | 0.299 µM | > 50 µM | 0.161 µM | 0.211 µM | 0.231 µM | 0.391 µM | 0.214 µM | 1.3 µM | 0.327 µM |
| CCCCC1(C(NC(=O)c2ccccc2Cl)c2ccncc2)C(=O)N(c2ccccc2)N(c2ccccc2)C1=O (stereo not given) | > 100 µM | > 100 µM | > 100 µM | – | > 100 µM | > 100 µM | > 100 µM | > 100 µM | > 100 µM | – | – | – | > 100 µM | – | – | – | – | – | – | – |
| Nc1ccccc1C#Cc1ccccc1C#Cc1cccs1 | – | > 100 µM | 28.6 µM | – | > 100 µM | 33.5 µM | 32.9 µM | 29.3 µM | 48.5 µM | – | 42.7 µM | 14.5 µM | 30 µM | 13.8 µM | – | 16.9 µM | 13.1 µM | 15.1 µM | 18 µM | 16.1 µM |
| O=C1C(=O)C2(CC1S(=O)(=O)c1ccccc1)c1ccccc1-c1ccccc12 (stereo not given) | > 10 µM | 34.5 µM | 31.9 µM | – | 63.7 µM | 34.6 µM | – | 44 µM | 72.8 µM | – | – | – | 46.5 µM | – | – | – | – | – | – | – |
| Cc1ccc(S(=O)C(C)C(Cl)c2ccccc2)cc1 (stereo not given) | – | > 100 µM | > 100 µM | – | – | > 100 µM | > 100 µM | > 100 µM | – | – | – | – | > 100 µM | – | – | – | – | – | – | – |
| COc1ccc(/C=N/NS(=O)(=O)c2ccccc2)cc1 | > 100 µM | > 100 µM | > 100 µM | – | > 100 µM | > 100 µM | > 100 µM | > 100 µM | > 100 µM | – | – | – | > 100 µM | – | – | – | – | – | – | – |
| COc1cc2c3c(n(CCCNCCCNCCCN)c(=O)c2cc1OC)-c1cc2c(cc1C3=O)OCO2 | – | > 100 µM | > 100 µM | > 100 µM | > 100 µM | > 100 µM | > 100 µM | – | > 100 µM | – | > 100 µM | – | – | 44.1 µM | > 100 µM | > 100 µM | 73.6 µM | – | > 100 µM | > 100 µM |
| COc1ccc(Br)c(C(=O)N2CCc3ccccc32)c1N | > 100 µM | > 100 µM | > 100 µM | – | > 100 µM | > 100 µM | 97 µM | > 100 µM | – | – | – | – | > 100 µM | – | – | – | – | – | – | – |
